The source of these data is US20110189280A1, “DOSAGE FORM COMPRISING 1-ISOPROPYL-4-HEXAHYDRO-1H-1,4-DIAZEPINE OR A SALT THEREOF” (priority 2008, published 2011).

This data set can be described thus: Gravimetric vapour sorption (GVS) analysis, water sorption/desorption at different relative humidities. Format: physicochemical. Particulars: across the 0-90% relative humidity range at 25° C. under nitrogen.

Each structure is given as a SMILES string.

`CC(C)N1CCCN(C(=O)c2ccc(OC3CCOCC3)cc2)CC1.Cl` [Drug Preparation Example 1 Part C, 1-isopropyl-4-{[4-(tetrahydro-2H-pyran-4-yloxy)phenyl]carbonyl}hexahydro-1H-1,4-diazepine hydrochloride]: the “water adsorbed and/or absorbed, and/or desorbed (GVS), compared with crystalline Form 1 mono-maleate” value (sample before purification by recrystallisation, data not shown) was “higher quantities of water”.

Turning to `CC(C)N1CCCN(C(=O)c2ccc(OC3CCOCC3)cc2)CC1.O=C(O)/C=C\C(=O)O` [Drug Preparation Example 3, 1-Isopropyl-4-{[4-(tetrahydro-2H-pyran-4-yloxy)phenyl]carbonyl}hexahydro-1H-1,4-diazepine mono-maleate salt (crystalline Form 1)], the “water reversibly adsorbed and/or absorbed, and/or desorbed (GVS)” value is “approximately 0.4 % w/w”.
